Measured values taken from US20260083865A1, “PROSTATE SPECIFIC MEMBRANE ANTIGEN (PSMA) LIGANDS AND USE THEREOF” (priority 2022, published 2026).
Like-named read-outs stand apart in the source and are kept apart here. Numbered stars: 1 amine (or outer) side, 2 acyl side, 3 side chain; on linkers, the order of the positions; unused ones are H or OH. Bridge positions count the residues as written; N and C are the ends. Square brackets hold non-standard residues; d marks the D form. Side chains are listed from the residue outwards. Peptide text beside a SMILES is read from it. * marks the point of attachment. X3 = O=C(O)CN1CCN(CC(=O)O)CCN(CC(=O)NCCCOCCOCCOCCCN*)CCN(CC(=O)O)CC1; X12 = O=C(O)CN1CCOCCN(CC(=O)O)CCN(CC(=O)*)CCOCCN(CC(=O)O)CC1; DOTA = O=C(O)CN1CCN(CC(=O)O)CCN(CC(=O)*)CCN(CC(=O)O)CC1; Phe(4-Cl) = N[C@@H](Cc1ccc(Cl)cc1)C(=O)O; Arg(Me) = CNC(=N)NCCC[C@H](N)C(=O)O; Ethylenediamine = C(CN[*:2])N[*:1]; X4 = O=C(CN1CCC(N[*:1])CC1)[*:2]; 4Pal = N[C@@H](Cc1ccncc1)C(=O)O; X1 = O=C(CC1CCN([*:1])CC1)[*:2]; Lys(Me) = CNCCCC[C@H](N)C(=O)O; Suc = O=C(CCC(=O)[*:2])[*:1]; Tle = CC(C)(C)[C@H](N)C(=O)O; 4Amb = NCc1ccc(C(=O)O)cc1; Nle = CCCC[C@H](N)C(=O)O; Aib = CC(C)(N)C(=O)O; Ahx = NCCCCCC(=O)O; βAla = NCCC(=O)O

Assays:
[1] = target: T1, Fc-fusion protein of human PSMA (hPSMA-Fc) (Homo sapiens, UniProt Q04609); test: Surface plasmon resonance assay (Biacore T200, single cycle kinetic); assay type: binding; details: hPSMA-Fc, 25° C., read-out: pKD CAT (converted)
T1 construct: purchased Acro Biosystems PSA-H5264
T1 sequence (Q04609 44-750 limits assumed): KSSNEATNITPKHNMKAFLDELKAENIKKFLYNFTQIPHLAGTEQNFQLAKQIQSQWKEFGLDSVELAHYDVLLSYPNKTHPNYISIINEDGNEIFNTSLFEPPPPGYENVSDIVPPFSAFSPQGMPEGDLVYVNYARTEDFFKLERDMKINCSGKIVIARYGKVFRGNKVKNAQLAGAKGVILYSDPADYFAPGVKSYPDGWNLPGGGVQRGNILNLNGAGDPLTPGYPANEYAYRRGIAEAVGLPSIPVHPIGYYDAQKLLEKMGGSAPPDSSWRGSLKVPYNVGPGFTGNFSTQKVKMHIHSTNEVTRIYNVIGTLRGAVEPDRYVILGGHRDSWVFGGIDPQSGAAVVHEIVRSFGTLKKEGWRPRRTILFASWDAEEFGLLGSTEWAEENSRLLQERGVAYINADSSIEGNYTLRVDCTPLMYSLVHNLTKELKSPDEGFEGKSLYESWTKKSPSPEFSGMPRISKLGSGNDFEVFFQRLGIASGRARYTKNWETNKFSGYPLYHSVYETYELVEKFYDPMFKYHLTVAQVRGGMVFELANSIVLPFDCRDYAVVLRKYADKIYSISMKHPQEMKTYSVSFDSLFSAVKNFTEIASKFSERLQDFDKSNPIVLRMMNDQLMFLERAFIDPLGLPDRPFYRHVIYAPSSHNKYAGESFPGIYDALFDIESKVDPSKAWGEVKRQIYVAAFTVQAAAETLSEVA
Summary of the method: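 KD, expressed as pKD, came from 1:1 Langmuir fits of reference- and buffer-blank-subtracted SPR data. The runs were single-cycle kinetics at 25° C in HBST/0.1% DMSO over human PSMA-Fc, captured to ~1000 RU on a peptide-coated CM5 surface and regenerated with 10 mM glycine pH 1.5.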

[2] = target: T2, PSMA-expressing C4-2 cells (Homo sapiens, UniProt Q04609); test: FACS binding assay (competition with 50 nM PSM-0183); details: read-out: pIC50 [C4-2] CAT (converted)
T2 construct: PSMA-expressing C4-2 cells (ATCC, Cat. No. CRL-3314) were cultured in RPMI-1640; host or cells: C4-2 cells
T2 sequence (Q04609 whole entry): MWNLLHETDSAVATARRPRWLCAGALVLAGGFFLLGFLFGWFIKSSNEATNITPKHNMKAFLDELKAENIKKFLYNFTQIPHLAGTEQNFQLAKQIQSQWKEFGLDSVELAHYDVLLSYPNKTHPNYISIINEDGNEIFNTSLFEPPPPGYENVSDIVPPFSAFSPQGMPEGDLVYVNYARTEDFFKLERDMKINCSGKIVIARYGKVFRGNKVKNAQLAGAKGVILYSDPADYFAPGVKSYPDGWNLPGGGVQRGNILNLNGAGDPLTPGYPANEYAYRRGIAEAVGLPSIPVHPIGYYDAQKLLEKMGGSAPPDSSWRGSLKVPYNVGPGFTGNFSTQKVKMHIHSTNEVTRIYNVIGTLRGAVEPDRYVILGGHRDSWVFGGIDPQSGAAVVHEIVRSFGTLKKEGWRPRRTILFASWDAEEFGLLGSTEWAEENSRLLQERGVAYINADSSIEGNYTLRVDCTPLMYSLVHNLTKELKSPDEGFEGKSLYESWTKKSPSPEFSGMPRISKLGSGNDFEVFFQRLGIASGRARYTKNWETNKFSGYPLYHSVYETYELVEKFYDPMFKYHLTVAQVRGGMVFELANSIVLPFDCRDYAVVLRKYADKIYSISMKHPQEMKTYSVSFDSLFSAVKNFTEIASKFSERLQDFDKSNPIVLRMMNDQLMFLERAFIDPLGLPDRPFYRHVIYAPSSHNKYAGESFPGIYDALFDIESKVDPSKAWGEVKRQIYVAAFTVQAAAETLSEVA
Summary of the method: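 Competition format: fluorescent tracer PSM-0183 (50 nM) displaced from PSMA on C4-2 cells by a test compound titration over 1 h at 4 °C. Bound tracer was quantified as flow-cytometric AF488 median fluorescence after washing. Four-parameter logistic fits of MFI data gave IC50 and pIC50.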

[3] = pKD category for PSMA SPR activity assay
[4] = pIC50 category of FACS binding, C4-2 cells
[5] = SPR, single cycle kinetic, category
[6] = FACS binding, C4-2 cells, competition with 50 nM PSM-0183, category
[7] = FACS binding, PSMA-expressing C4-2 cells, pIC50 category

Structure (SMILES)	Kd [1, 3] [nM]	IC50 [2, 4] [nM]	further results
C[C@@H](O)[C@H](NC(=O)[C@@H](NC(=O)[C@@H]1CSSC[C@H](NC(=O)[C@H](Cc2ccccc2)NC(=O)C(C)(C)NC(=O)[C@@H](NC(=O)CN2CCC(NC(=O)CN3CCN(CC(=O)O)CCN(CC(=O)O)CCN(CC(=O)O)CC3)CC2)[C@@H](C)O)C(=O)N[C@@H](CCCCN)C(=O)N[C@@H](CCCNC(=N)N)C(=O)NC(C)(C)C(=O)N[C@@H](CC(N)=O)C(=O)N1)C(C)(C)C)C(N)=O [PSM-0543, DOTA-APAc-Thr-Aib-Phe-[Cys-Lys-Arg-Aib-Asn-Cys]-Tle-Thr-NH2] ({DOTA}-[X4]T[Aib]FCKR[Aib]NC[Tle]T-NH2; disulfide 5-10)	< 12.6	< 200	–
C[C@@H](O)[C@H](NC(=O)[C@@H](NC(=O)[C@@H]1CSSC[C@H](NC(=O)[C@H](Cc2ccccc2)NC(=O)C(C)(C)NC(=O)CN2CCN(CC(=O)O)CCN(CC(=O)O)CCN(CC(=O)O)CC2)C(=O)N[C@@H](CCCCN)C(=O)N[C@@H](CCCNC(=N)N)C(=O)NC(C)(C)C(=O)N[C@@H](CC(N)=O)C(=O)N1)C(C)(C)C)C(N)=O [PSM-0447, DOTA-Aib-Phe-[Cys-Lys-Arg-Aib-Asn-Cys]-Tle-Thr-NH2] ({DOTA}-[Aib]FCKR[Aib]NC[Tle]T-NH2; disulfide 3-8)	> 501	> 3160	–
CCCC[C@@H]1NC(=O)[C@@H](NC(=O)[C@H](Cc2ccc(Cl)cc2)NC(=O)C(C)(C)NC(=O)[C@@H](NC(C)=O)[C@@H](C)O)CSSC[C@@H](C(=O)N[C@H](C(=O)N[C@H](C(N)=O)[C@@H](C)O)C(C)(C)C)NC(=O)[C@H](CC(N)=O)NC(=O)C(C)(C)NC(=O)[C@H](CCCNC(=N)N)NC1=O [PSM-0205, Ac-Thr-Aib-Pcf-[Cys-Nle-Arg-Aib-Asn-Cys]-Tle-Thr-NH2] (Ac-T[Aib][Phe(4-Cl)]C[Nle]R[Aib]NC[Tle]T-NH2; disulfide 4-9)	–	–	Kd [1, 5]: < 12.6 nM; IC50 [2, 6]: < 200 nM
CC(=O)N[C@H](C(=O)NC(C)(C)C(=O)N[C@@H](Cc1ccccc1)C(=O)N[C@H]1CSSC[C@@H](C(=O)N[C@H](C(=O)N[C@@H](CCC(N)=O)C(N)=O)C(C)(C)C)NC(=O)[C@H](CC(N)=O)NC(=O)C(C)(C)NC(=O)[C@H](CCCNC(=N)N)NC(=O)[C@H](CCCCN)NC1=O)[C@@H](C)O [PSM-0540, Ac-Thr-Aib-Phe-[Cys-Lys-Arg-Aib-Asn-Cys]-Tle-Gln-NH2] (Ac-T[Aib]FCKR[Aib]NC[Tle]Q-NH2; disulfide 4-9)	< 12.6	< 200	–
CC(=O)N[C@H](C(=O)NC(C)(C)C(=O)N[C@@H](Cc1ccccc1)C(=O)N[C@H]1CSSC[C@@H](C(=O)N[C@H](C(=O)N[C@H](C(N)=O)[C@@H](C)O)C(C)(C)C)NC(=O)[C@@H](CC(N)=O)NC(=O)C(C)(C)NC(=O)[C@H](CCCNC(=N)N)NC(=O)[C@H](CCCCN)NC1=O)[C@@H](C)O [PSM-0402, Ac-Thr-Aib-Phe-[Cys-Lys-Arg-Aib-asn-Cys]-Tle-Thr-NH2] (Ac-T[Aib]FCKR[Aib][dN]C[Tle]T-NH2; disulfide 4-9)	< 12.6	< 200	–
C[C@@H](O)[C@H](NC(=O)[C@@H](NC(=O)[C@@H]1CSSC[C@H](NC(=O)[C@H](Cc2ccccc2)NC(=O)C(C)(C)NC(=O)c2ccc(CNC(=O)CN3CCN(CC(=O)O)CCN(CC(=O)O)CCN(CC(=O)O)CC3)cc2)C(=O)N[C@@H](CCCCN)C(=O)N[C@@H](CCCNC(=N)N)C(=O)NC(C)(C)C(=O)N[C@@H](CC(N)=O)C(=O)N1)C(C)(C)C)C(N)=O [PSM-0270, DOTA-Pamb-Aib-Phe-[Cys-Lys-Arg-Aib-Asn-Cys]-Tle-Thr-NH2] ({DOTA-4Amb}-[Aib]FCKR[Aib]NC[Tle]T-NH2; disulfide 3-8)	–	–	Kd ([1]; PSMA SPR assay, pKD category): < 12.6 nM; IC50 [2, 7]: < 200 nM
CC(=O)N[C@H](C(=O)NC(C)(C)C(=O)N[C@@H](Cc1ccccc1)C(=O)N[C@H]1CSSC[C@@H](C(=O)N[C@H](C(=O)N[C@H](C(=O)N[C@@H](CC(=O)O)C(N)=O)[C@@H](C)O)C(C)(C)C)NC(=O)[C@H](CC(N)=O)NC(=O)[C@H](C)NC(=O)[C@H](CCC(=O)O)NC(=O)[C@H](CCCCN)NC1=O)[C@@H](C)O [PSM-0363, Ac-Thr-Aib-Phe-[Cys-Lys-Glu-Ala-Asn-Cys]-Tle-Thr-Asp-NH2] (Ac-T[Aib]FCKEANC[Tle]TD-NH2; disulfide 4-9)	–	–	Kd ([1]; PSMA SPR assay, pKD category): < 12.6 nM; IC50 [2, 7]: 200 to 1260 nM
CC(=O)N[C@H](C(=O)NC(C)(C)C(=O)N[C@@H](Cc1ccc(Cl)cc1)C(=O)N[C@H]1CSSC[C@@H](C(=O)N[C@H](C(=O)NCCC(N)=O)C(C)(C)C)NC(=O)[C@H](CC(N)=O)NC(=O)C(C)(C)NC(=O)[C@H](CCCNC(=N)N)NC(=O)[C@H](CCCCN)NC1=O)[C@@H](C)O [PSM-0514, Ac-Thr-Aib-Pcf-[Cys-Lys-Arg-Aib-Asn-Cys]-Tle-Bal-NH2] (Ac-T[Aib][Phe(4-Cl)]CKR[Aib]NC[Tle][βAla]-NH2; disulfide 4-9)	< 12.6	< 200	–
CNC(=N)NCCC[C@@H]1NC(=O)[C@H](CCCCN)NC(=O)[C@@H](NC(=O)[C@H](Cc2ccc(Cl)cc2)NC(=O)C(C)(C)NC(C)=O)CSSC[C@@H](C(=O)N[C@H](C(=O)NCCNC(=O)CN2CCN(CC(=O)O)CCN(CC(=O)O)CCN(CC(=O)O)CC2)C(C)(C)C)NC(=O)[C@H](CC(N)=O)NC(=O)C(C)(C)NC1=O [PSM-0320, Ac-Aib-Pcf-[Cys-Lys-Arg(Me)-Aib-Asn-Cys]-Tle-en-DOTA] (Ac-[Aib][Phe(4-Cl)]CK[Arg(Me)][Aib]NC[Tle]-{Ethylenediamine-DOTA}; disulfide 3-8)	–	–	Kd ([1]; PSMA SPR assay, pKD category): < 12.6 nM; IC50 [2, 7]: < 200 nM
CCCC[C@H](NC(=O)[C@@H]1CSSC[C@H](NC(=O)[C@H](Cc2ccccc2)NC(=O)[C@H](C)NC(=O)[C@@H](NC(C)=O)[C@@H](C)O)C(=O)N[C@@H](CCCCN)C(=O)N[C@@H](CCCNC(=N)N)C(=O)N[C@@H](C)C(=O)N[C@@H](CC(N)=O)C(=O)N1)C(=O)N[C@@H](C(=O)N[C@H](CC(=O)O)C(N)=O)[C@H](C)O [PSM-0182, Ac-Thr-Ala-Phe-[Cys-Lys-Arg-Ala-Asn-Cys]-Nle-thr-Asp-NH2]	–	–	Kd [1, 5]: > 501 nM; IC50 [2, 6]: 1260 to 3160 nM
C[C@@H](O)[C@H](NC(=O)[C@@H](NC(=O)[C@@H]1CSSC[C@H](NC(=O)[C@H](Cc2ccccc2)NC(=O)C(C)(C)NC(=O)[C@@H](NC(=O)CCCCCNC(=O)CN2CCN(CC(=O)O)CCN(CC(=O)O)CCN(CC(=O)O)CC2)[C@@H](C)O)C(=O)N[C@@H](CCCCN)C(=O)N[C@@H](CCCNC(=N)N)C(=O)NC(C)(C)C(=O)N[C@@H](CC(N)=O)C(=O)N1)C(C)(C)C)C(N)=O [PSM-0368, DOTA-Ahx-Thr-Aib-Phe-[Cys-Lys-Arg-Aib-Ass-Cys]-Tle-Thr-NH2] ({DOTA-Ahx}-T[Aib]FCKR[Aib]NC[Tle]T-NH2; disulfide 4-9)	< 12.6	< 200	–
CC(=O)N[C@H](C(=O)NC(C)(C)C(=O)N[C@@H](Cc1ccccc1)C(=O)N[C@H]1CSSC[C@@H](C(=O)N[C@H](C(=O)N[C@H](C(N)=O)[C@@H](C)O)C(C)(C)C)NC(=O)[C@H](CC(=O)O)NC(=O)C(C)(C)NC(=O)[C@H](CCCNC(=N)N)NC(=O)[C@H](CCCCN)NC1=O)[C@@H](C)O [PSM-0478, Ac-Thr-Aib-Phe-[Cys-Lys-Arg-Aib-Asp-Cys]-Tle-Thr-NH2] (Ac-T[Aib]FCKR[Aib]DC[Tle]T-NH2; disulfide 4-9)	< 12.6	< 200	–
CNCCCC[C@@H]1NC(=O)[C@@H](NC(=O)[C@H](Cc2ccc(Cl)cc2)NC(=O)C(C)(C)NC(=O)[C@@H](NC(=O)CC2CCN(C(=O)CN3CCOCCN(CC(=O)O)CCN(CC(=O)O)CCOCCN(CC(=O)O)CC3)CC2)[C@@H](C)O)CSSC[C@@H](C(=O)N[C@H](C(=O)N[C@H](C(N)=O)[C@@H](C)O)C(C)(C)C)NC(=O)[C@H](CC(N)=O)NC(=O)C(C)(C)NC(=O)[C@H](CCCNC(=N)NC)NC1=O [PSM-0495, Crown-Cmp-Thr-Aib-Pcf-[Cys-Lys(Me)-Arg(Me)-Aib-Asn-Cys]-Tle-Thr-NH2] (X12-[X1]T[Aib][Phe(4-Cl)]C[Lys(Me)][Arg(Me)][Aib]NC[Tle]T-NH2; disulfide 5-10)	< 12.6	< 200	–
C[C@@H](O)[C@H](NC(=O)[C@@H](NC(=O)[C@@H]1CSSC[C@H](NC(=O)[C@H](Cc2ccncc2)NC(=O)C(C)(C)NC(=O)[C@@H](NC(=O)CC2CCN(C(=O)CN3CCN(CC(=O)O)CCN(CC(=O)O)CCN(CC(=O)O)CC3)CC2)[C@@H](C)O)C(=O)N[C@@H](CCCCN)C(=O)N[C@@H](CCCNC(=N)N)C(=O)NC(C)(C)C(=O)N[C@@H](CC(N)=O)C(=O)N1)C(C)(C)C)C(N)=O [PSM-0454, DOTA-Cmp-Thr-Aib-Ppa-[Cys-Lys-Cit-Aib-Asn-Cys]-Tle-Thr-NH2] ({DOTA}-[X1]T[Aib][4Pal]CKR[Aib]NC[Tle]T-NH2; disulfide 5-10)	126 to 501	1260 to 3160	–
CC(=O)N[C@H](C(=O)NC(C)(C)C(=O)N[C@@H](Cc1ccccc1)C(=O)N[C@H]1CSSC[C@@H](C(=O)N[C@H](C(=O)N[C@H](C(N)=O)[C@@H](C)O)C(C)(C)C)NC(=O)[C@H](CC(N)=O)NC(=O)[C@H](CCCCNC(=O)CCC(=O)NCCCOCCOCCOCCCNC(=O)CN2CCN(CC(=O)O)CCN(CC(=O)O)CCN(CC(=O)O)CC2)NC(=O)[C@H](CCC(N)=O)NC(=O)[C@H](CCCCN)NC1=O)[C@@H](C)O [PSM-0423, Ac-Thr-Aib-Phe-[Cys-Lys-Gln-Lys(DOTA-Ttds)-Asn-Cys]-Tle-Thr-NH2] (Ac-T[Aib]FCKQK([Suc-X3])NC[Tle]T-NH2; disulfide 4-9)	12.6 to 126	200 to 1260	–
